This is an account of results in ChEMBL document CHEMBL1201862, “PubChem BioAssay data set” (2004).

Test in all cases: growth of human tumour cells (NCI), 48 h
For experiment [1], the system named is MCF7.
The subject of experiment [2] is Hs-578T.
The test system of experiment [3] is HCT-116.
Experiment [4] relates to NCI-H522.
Experiment [5] concerns Malme-3M.
Experiment [6] concerns HCT-15.
In experiment [7] the test system is MDA-N.
Experiment [8] has as its system NCI-H226.
For experiment [9], the system named is HCC 2998.
The subject of experiment [10] is SN12C.
The test system of experiment [11] is NCI-H23.
The test system of experiment [12] is SW-620.
Experiment [13] has as its system SK-MEL-28.
The subject of experiment [14] is SK-OV-3.
Experiment [15] relates to CAKI-1.
The test system of experiment [16] is HT-29.
Experiment [17] deals with DU-145.
Experiment [18] deals with U-251.
In experiment [19] the test system is OVCAR-8.
For experiment [20], the system named is UACC-62.

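Growth conditions: 96-well plates. Treatment: test compound, 48 hours, 5 concentrations. Analysis: linear interpolation between bracketing concentrations; unreached endpoints set to highest concentration. Abbreviation: GI50, concentration required for 50% inhibition of growth.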 Activity calls are given as the source filed them. Cut-off read from the data, not from the text of the source: active = GI50 up to about 1.1 µM and inactive = higher.

Take `Cc1ccc(Nc2ncnc3sc(SCc4ccccc4)nc23)cc1`: the GI50 in experiment [1] is > 100 µM (inactive); in [2], > 100 µM (inactive); in experiment [3], > 100 µM (inactive); in experiment [4], > 100 µM (inactive); in [5] it was > 100 µM (inactive); in [6] it was 57.7 µM. For the same compound, the GI50 in [7] was > 100 µM (inactive); in [8] it was > 100 µM (inactive); in [9], 33.7 µM (inactive); in experiment [10] it was > 100 µM (inactive); in experiment [11], > 100 µM (inactive); in [12], > 100 µM (inactive). The GI50 is > 100 µM (inactive) in [13]; > 100 µM (inactive) in experiment [14]; 26 µM (inactive) in [15]; 36.1 µM (inactive) in experiment [16]; 27.3 µM (inactive) in experiment [17]; > 100 µM (inactive) in [18]. In experiment [19], the GI50 was > 100 µM (inactive).

For `CC1(C)C2CC3C4CC5(Nc6ccccc6C5N41)[C@]3(C)CC2=O` (stereo not given in full), the GI50 in experiment [1] was > 50 µM (inactive); in experiment [2] it was > 50 µM (inactive); in experiment [3], > 50 µM (inactive); in [4], > 50 µM (inactive); in [5], > 50 µM (inactive); in [6] it was over 50 µM. Also, the GI50 in [7], in experiment [8], in experiment [9], in experiment [10], in [11] and in [12] was > 50 µM (inactive) throughout. Also, the GI50 in experiment [20], in [13], in [15], in [16], in experiment [17] and in [18] was > 50 µM (inactive) each time. Further, the GI50 in [19] was > 50 µM (inactive).

For the compound `NC(=S)N/N=c1\cc(C(=O)Nc2ccc([N+](=O)[O-])cc2[N+](=O)[O-])oc2ccccc12`, the GI50 in experiment [1] is > 100 µM (inactive); in experiment [2] it was > 100 µM (inactive); in [3], > 100 µM (inactive); in experiment [4], > 100 µM (inactive); in [6], over 100 µM; in experiment [7], > 100 µM (inactive). Further, the GI50 in experiment [8] is 88.9 µM (inactive); in experiment [9] it was > 100 µM (inactive); in experiment [10] it was > 100 µM (inactive); in [11] it was > 100 µM (inactive); in experiment [12], > 100 µM (inactive); in experiment [20], > 100 µM (inactive). Further, the GI50 in [13] was > 100 µM (inactive); in experiment [14], 99.5 µM (inactive); in experiment [15], 75.2 µM (inactive); in experiment [16], > 100 µM (inactive); in experiment [17], > 100 µM (inactive); in [18] it was > 100 µM (inactive). Further, in experiment [19], the GI50 was > 100 µM (inactive).

With `Cc1occc(=O)c1O` [MALTOL], the GI50 in [1] is > 100 µM (inactive); in [2], > 100 µM (inactive); in experiment [3] it was > 100 µM (inactive); in [4], > 100 µM (inactive); in [5], > 100 µM (inactive); in experiment [6], 4.25 µM. The GI50 in experiment [7] is > 100 µM (inactive); in experiment [8], > 100 µM (inactive); in experiment [9] it was > 100 µM (inactive); in [10], 5 µM (inactive); in experiment [11] it was > 100 µM (inactive); in experiment [12], > 100 µM (inactive). For the same compound, the GI50 in [13], in experiment [15], in experiment [16], in experiment [17], in [18] and in experiment [19] was > 100 µM (inactive) throughout.

Regarding `Nc1nc(Cl)c(/C=N\O)c(NCC2(CO)CC(=O)C2)n1`, the GI50 was 52.5 µM (inactive) in experiment [1]; 18.7 µM (inactive) in [2]; 88.7 µM (inactive) in experiment [3]; 68.7 µM (inactive) in experiment [4]; 33.7 µM (inactive) in [5]; over 100 µM in experiment [6]. Moreover, the GI50 in [7] is 96.4 µM (inactive); in [8], > 100 µM (inactive); in experiment [9], > 100 µM (inactive); in experiment [10] it was > 100 µM (inactive); in experiment [11], 36.4 µM (inactive); in [12], 89.1 µM (inactive). For the same compound, the GI50 in experiment [13] was > 100 µM (inactive); in [15], 75.3 µM (inactive); in experiment [16], 80 µM (inactive); in [17], 77.4 µM (inactive); in [18], > 100 µM (inactive); in [19], > 100 µM (inactive).

With `O=C(Oc1ccc(C(c2c(O)c3ccccc3oc2=O)c2c(O)c3ccccc3oc2=O)cc1)c1ccc(C(=O)c2ccccc2)cc1`, the GI50 is 29.4 µM (inactive) in [1]; 37.7 µM (inactive) in [2]; 34.2 µM (inactive) in [3]; 15.4 µM (inactive) in experiment [4]; 37.2 µM in experiment [6]; 36.1 µM (inactive) in experiment [7]. Moreover, the GI50 in experiment [8] is 10.6 µM (inactive); in experiment [9] it was 18.8 µM (inactive); in [10], 43 µM (inactive); in experiment [11], 18.5 µM (inactive); in experiment [12] it was 32.7 µM (inactive); in experiment [20], 19.6 µM (inactive). For the same compound, the GI50 in experiment [13] was 13.6 µM (inactive); in experiment [14] it was 16.7 µM (inactive); in experiment [15], 28 µM (inactive); in experiment [16], 17.7 µM (inactive); in [17], 29.1 µM (inactive); in experiment [18], 23.6 µM (inactive). For the same compound, the GI50 in experiment [19] is 16.6 µM (inactive).

Consider `CCOP(=O)(C/C=C/Cn1nc(Br)c(=O)[nH]c1=O)OCC`, for which the GI50 was > 100 µM (inactive) in [1]; > 100 µM (inactive) in experiment [2]; > 100 µM (inactive) in experiment [3]; > 100 µM (inactive) in [4]; > 100 µM (inactive) in experiment [5]; over 100 µM in experiment [6]. Also, the GI50 in [7], in [8], in experiment [9], in experiment [10], in experiment [11] and in experiment [12] was > 100 µM (inactive) in each case. Further, the GI50 in [20], in experiment [13], in experiment [15], in experiment [16], in [17] and in [18] was > 100 µM (inactive) in each case. Further, the GI50 in experiment [19] was > 100 µM (inactive).

Consider `N#Cc1c(N)[nH]c(=S)c(C#N)c1-c1cccc(Cl)c1`, for which the GI50 was 32.3 µM (inactive) in experiment [1]; 26.7 µM (inactive) in [2]; 24.4 µM (inactive) in experiment [3]; 18.9 µM (inactive) in [4]; 56.1 µM (inactive) in experiment [5]; 41.1 µM in [6]. The GI50 in [7] was 18.2 µM (inactive); in [8], 19.9 µM (inactive); in experiment [9], 15.6 µM (inactive); in [10], 20.4 µM (inactive); in [11], 71.9 µM (inactive); in experiment [12], 24.4 µM (inactive). Moreover, the GI50 was 29.6 µM (inactive) in experiment [20]; 39.6 µM (inactive) in experiment [13]; 65.8 µM (inactive) in [15]; 34.2 µM (inactive) in [16]; 33.3 µM (inactive) in experiment [17]; 25.9 µM (inactive) in experiment [18]. In addition, in [19], the GI50 was 30.1 µM (inactive).
